The source made the active and inactive calls.
Key:
[1] = target: T1, Corticotropin-releasing factor receptor 2/Corticotropin-releasing factor-binding protein (Homo sapiens, UniProt P24387+Q13324); test: Dose Response confirmation of uHTS hits for small molecule antagonists of the CRF-binding protein and CRF-R2 receptor complex.; type: functional; details: read-out: IC50_Mean
T1 sequence (Q13324 whole entry): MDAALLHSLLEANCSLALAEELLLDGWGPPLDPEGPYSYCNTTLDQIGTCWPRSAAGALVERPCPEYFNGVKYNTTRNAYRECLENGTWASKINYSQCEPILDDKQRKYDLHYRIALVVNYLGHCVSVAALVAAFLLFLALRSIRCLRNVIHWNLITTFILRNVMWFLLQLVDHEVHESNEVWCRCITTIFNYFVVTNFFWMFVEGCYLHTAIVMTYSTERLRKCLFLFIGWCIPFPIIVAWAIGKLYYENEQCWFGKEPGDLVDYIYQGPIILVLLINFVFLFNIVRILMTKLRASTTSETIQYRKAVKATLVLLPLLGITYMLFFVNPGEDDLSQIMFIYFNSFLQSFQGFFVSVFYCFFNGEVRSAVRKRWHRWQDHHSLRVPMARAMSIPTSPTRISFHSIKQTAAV
T1 sequence (P24387 whole entry): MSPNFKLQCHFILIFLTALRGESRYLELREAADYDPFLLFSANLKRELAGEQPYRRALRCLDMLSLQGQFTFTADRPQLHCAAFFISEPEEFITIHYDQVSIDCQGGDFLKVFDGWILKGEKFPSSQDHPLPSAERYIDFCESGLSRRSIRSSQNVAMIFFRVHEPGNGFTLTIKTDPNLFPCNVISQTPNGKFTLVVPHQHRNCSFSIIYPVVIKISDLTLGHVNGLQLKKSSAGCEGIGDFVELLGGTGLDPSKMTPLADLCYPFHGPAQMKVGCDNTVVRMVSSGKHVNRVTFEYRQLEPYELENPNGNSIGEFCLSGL

[2] = target: T1, Corticotropin-releasing factor receptor 2/Corticotropin-releasing factor-binding protein; test: activators of CRF receptor 2 with binding protein – uHTS hits, confirmation (AID 602473); type: functional; details: read-out: EC50_Mean
[3] = Luminescence Cell-Based Dose Confirmation HTS to Identify Inhibitors of Platelet Dense Granule Release. [Related pubchem assays: 1663 (Primary HTS), 1678 (Summary of Project)]; type: functional
[4] = target: Luciferin 4-monooxygenase (Photinus pyralis, UniProt P08659); test: firefly luciferase enzyme inhibitors, dose response, biochemical, luminescence (AID 1891)
Luciferin 4-monooxygenase, sequence (P08659 whole entry): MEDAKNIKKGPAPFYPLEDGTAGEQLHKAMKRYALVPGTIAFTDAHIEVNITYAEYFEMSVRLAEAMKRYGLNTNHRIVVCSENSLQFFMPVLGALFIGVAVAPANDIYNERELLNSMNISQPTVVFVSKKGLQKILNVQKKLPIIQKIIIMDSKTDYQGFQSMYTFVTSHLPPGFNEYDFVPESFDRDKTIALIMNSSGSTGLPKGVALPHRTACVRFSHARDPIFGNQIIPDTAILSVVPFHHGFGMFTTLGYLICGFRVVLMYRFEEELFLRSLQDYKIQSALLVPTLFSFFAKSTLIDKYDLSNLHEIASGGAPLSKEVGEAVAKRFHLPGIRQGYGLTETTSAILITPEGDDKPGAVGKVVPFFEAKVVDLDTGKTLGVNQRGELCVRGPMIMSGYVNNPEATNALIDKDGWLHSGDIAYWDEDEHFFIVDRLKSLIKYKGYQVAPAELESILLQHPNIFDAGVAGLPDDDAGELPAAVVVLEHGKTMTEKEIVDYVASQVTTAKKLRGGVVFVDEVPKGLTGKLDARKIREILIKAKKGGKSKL

Cytochrome P450 2D6 = Cytochrome P450 2D6 (Homo sapiens, UniProt P10635);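 further: CYP2D6 member of a cytochrome P450 panel assay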
Cytochrome P450 2D6, sequence (P10635 whole entry): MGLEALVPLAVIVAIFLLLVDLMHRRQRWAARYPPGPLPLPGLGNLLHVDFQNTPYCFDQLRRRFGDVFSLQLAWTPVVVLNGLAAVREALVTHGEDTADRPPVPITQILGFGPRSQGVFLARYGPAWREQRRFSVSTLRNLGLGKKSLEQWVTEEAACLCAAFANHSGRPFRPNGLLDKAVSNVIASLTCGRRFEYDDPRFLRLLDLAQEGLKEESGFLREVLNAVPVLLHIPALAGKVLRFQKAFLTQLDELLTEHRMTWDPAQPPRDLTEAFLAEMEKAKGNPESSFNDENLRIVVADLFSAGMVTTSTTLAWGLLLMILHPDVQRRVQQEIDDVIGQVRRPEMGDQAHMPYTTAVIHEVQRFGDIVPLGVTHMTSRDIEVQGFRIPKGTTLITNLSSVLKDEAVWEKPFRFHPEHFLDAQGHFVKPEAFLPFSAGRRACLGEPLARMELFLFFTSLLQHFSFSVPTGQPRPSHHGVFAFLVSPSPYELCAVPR

[5] = target: T2, Short transient receptor potential channel 4 (Mus musculus, UniProt Q9QUQ5); test: mouse TRPC4 channel activators, dose response, cell-based, HEK293 TRPC4/mu-opioid, Fluo-4 calcium (AID 434937); type: functional
T2 sequence (Q9QUQ5 whole entry): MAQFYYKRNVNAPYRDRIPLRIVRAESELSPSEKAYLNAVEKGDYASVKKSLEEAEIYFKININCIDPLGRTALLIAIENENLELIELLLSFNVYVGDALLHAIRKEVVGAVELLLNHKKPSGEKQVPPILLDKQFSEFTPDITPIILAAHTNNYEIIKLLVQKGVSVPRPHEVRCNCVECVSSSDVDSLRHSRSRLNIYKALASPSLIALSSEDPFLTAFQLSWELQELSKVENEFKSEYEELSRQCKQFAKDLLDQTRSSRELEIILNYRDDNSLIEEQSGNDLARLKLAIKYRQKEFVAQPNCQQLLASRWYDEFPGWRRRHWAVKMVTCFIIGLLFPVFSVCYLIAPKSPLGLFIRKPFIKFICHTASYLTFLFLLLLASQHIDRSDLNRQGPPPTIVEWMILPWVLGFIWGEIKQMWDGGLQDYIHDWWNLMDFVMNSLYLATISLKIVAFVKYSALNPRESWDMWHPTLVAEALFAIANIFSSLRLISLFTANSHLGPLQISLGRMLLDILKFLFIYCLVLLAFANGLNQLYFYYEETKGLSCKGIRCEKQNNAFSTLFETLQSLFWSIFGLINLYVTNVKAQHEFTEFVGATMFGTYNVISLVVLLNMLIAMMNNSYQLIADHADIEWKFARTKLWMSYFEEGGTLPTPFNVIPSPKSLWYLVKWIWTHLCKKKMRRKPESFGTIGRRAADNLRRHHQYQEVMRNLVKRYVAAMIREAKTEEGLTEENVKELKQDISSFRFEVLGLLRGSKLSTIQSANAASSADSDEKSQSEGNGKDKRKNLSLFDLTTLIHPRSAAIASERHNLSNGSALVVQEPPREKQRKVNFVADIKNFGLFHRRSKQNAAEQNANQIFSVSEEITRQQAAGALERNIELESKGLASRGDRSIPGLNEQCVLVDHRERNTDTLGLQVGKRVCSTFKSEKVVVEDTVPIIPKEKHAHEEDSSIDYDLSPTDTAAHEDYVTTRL

[6] = target: T3, Rac GTPase-activating protein 1 (Homo sapiens, UniProt Q9H0H5); test: MgcRacGAP GTPase-activating activity inhibitors, confirmation, biochemical, ADP Hunter fluorescence, primary and confirmatory (AID 624330); type: functional
T3 sequence (Q9H0H5 whole entry): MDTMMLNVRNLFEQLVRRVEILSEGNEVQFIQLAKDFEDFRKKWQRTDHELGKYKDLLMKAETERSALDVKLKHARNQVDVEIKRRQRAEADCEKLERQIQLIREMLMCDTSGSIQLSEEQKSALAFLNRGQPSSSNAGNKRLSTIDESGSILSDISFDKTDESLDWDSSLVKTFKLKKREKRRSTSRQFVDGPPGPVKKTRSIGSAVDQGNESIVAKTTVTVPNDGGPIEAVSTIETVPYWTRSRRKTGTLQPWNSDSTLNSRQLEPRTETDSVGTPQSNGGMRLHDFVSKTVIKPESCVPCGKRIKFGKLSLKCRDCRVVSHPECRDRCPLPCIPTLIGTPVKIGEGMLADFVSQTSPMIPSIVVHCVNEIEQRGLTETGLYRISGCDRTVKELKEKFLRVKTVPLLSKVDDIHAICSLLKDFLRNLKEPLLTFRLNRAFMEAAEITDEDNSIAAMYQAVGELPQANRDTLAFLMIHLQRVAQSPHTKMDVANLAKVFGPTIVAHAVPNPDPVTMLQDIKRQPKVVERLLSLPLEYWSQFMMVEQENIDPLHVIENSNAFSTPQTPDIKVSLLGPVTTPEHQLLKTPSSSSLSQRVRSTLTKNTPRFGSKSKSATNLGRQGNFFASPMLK

[7] = target: T4, Histone-lysine N-methyltransferase NSD2 (Homo sapiens, UniProt O96028); type: biochemical
T4 sequence (O96028 whole entry): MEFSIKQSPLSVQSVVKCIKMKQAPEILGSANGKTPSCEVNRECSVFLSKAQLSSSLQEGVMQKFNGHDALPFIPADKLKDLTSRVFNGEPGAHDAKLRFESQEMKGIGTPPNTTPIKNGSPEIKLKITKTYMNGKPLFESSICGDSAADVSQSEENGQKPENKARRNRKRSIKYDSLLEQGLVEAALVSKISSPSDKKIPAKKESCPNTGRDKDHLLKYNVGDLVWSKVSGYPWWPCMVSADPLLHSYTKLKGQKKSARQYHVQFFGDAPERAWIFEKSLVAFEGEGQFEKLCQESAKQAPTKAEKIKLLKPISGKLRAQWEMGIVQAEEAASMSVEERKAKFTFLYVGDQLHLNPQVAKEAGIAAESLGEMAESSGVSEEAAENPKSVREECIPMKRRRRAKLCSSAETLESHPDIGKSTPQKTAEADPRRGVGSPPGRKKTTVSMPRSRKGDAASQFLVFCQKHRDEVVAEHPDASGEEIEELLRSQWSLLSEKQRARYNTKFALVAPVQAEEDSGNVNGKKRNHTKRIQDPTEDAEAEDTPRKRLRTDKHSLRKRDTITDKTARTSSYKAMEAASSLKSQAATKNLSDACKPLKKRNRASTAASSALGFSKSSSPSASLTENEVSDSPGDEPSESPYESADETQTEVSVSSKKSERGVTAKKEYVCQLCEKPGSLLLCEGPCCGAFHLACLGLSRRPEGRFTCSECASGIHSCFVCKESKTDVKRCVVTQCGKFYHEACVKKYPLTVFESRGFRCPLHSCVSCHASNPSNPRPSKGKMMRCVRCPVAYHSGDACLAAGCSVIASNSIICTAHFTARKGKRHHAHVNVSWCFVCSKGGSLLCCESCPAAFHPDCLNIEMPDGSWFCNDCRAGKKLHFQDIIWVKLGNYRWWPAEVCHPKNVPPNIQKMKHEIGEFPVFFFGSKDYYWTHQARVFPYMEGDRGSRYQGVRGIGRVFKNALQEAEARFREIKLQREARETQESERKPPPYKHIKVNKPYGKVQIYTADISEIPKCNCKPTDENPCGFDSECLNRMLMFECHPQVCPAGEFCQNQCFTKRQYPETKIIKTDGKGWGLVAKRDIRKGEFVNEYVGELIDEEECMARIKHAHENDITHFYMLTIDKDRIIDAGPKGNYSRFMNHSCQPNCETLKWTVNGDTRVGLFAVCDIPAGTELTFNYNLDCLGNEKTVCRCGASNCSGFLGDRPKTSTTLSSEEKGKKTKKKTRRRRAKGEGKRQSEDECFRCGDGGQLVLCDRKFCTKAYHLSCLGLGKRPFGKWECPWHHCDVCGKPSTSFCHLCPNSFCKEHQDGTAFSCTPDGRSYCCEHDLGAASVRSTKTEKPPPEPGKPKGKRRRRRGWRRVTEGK

Cytochrome P450 3A4 = Cytochrome P450 3A4 (Homo sapiens, UniProt P08684);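 further: CYP3A4 tested as one member of a cytochrome P450 panel screen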
Cytochrome P450 3A4, sequence (P08684 whole entry): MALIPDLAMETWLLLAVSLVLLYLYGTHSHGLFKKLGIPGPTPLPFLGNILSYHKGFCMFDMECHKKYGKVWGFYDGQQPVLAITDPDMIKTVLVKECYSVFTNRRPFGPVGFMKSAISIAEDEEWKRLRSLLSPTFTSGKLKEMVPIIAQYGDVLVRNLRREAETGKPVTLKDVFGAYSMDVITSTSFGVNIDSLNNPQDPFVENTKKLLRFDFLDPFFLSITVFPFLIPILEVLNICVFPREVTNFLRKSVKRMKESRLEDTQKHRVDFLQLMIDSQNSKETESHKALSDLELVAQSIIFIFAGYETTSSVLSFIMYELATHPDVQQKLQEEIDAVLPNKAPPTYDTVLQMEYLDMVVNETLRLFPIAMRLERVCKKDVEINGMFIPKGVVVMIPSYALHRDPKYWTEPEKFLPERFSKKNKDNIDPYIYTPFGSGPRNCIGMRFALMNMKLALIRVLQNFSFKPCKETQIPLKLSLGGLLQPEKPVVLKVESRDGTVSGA

Cytochrome P450 2C9 = Cytochrome P450 2C9 (Homo sapiens, UniProt P11712)
Cytochrome P450 2C9, sequence (P11712 whole entry): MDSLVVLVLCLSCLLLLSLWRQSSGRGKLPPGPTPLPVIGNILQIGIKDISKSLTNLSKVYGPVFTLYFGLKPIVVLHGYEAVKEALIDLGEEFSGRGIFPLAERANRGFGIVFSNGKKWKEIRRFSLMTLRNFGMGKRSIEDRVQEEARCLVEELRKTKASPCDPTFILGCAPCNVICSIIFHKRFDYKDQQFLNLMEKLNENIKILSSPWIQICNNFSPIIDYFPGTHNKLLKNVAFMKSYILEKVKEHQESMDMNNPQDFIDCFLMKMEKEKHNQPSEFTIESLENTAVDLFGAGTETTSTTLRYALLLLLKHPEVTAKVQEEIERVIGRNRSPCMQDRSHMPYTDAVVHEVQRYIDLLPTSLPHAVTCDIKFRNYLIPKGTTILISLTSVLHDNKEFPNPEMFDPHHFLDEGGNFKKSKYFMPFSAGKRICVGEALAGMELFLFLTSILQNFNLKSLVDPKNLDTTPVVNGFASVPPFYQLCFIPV

Cytochrome P450 1A2 = target: T5, Cytochrome P450 1A2 (Homo sapiens, UniProt P05177);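 further: PubChem cytochrome P450 panel assay, CYP1A2 panel member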
T5 sequence (P05177 whole entry): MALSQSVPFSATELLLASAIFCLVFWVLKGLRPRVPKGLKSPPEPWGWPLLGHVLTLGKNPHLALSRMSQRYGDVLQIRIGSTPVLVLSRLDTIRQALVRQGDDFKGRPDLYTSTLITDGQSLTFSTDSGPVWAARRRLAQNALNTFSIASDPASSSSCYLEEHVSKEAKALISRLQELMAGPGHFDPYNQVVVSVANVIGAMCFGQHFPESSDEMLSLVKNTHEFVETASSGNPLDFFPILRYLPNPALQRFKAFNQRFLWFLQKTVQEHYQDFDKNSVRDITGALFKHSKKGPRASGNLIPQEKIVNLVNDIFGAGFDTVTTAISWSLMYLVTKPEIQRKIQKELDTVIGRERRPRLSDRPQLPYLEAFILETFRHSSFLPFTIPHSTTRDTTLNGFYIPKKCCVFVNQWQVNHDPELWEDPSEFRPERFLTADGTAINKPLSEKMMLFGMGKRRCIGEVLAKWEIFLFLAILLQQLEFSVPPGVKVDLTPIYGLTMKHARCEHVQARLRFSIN

Cytochrome P450 2C19 = Cytochrome P450 2C19 (Homo sapiens, UniProt P33261); test: Cytochrome panel assay with activity outcomes. Panel member name: p450-cyp2c19 Compounds with AC50 equal or less than 10 uM are considered active; type: functional; details: read-out: AC50
Cytochrome P450 2C19, sequence (P33261 whole entry): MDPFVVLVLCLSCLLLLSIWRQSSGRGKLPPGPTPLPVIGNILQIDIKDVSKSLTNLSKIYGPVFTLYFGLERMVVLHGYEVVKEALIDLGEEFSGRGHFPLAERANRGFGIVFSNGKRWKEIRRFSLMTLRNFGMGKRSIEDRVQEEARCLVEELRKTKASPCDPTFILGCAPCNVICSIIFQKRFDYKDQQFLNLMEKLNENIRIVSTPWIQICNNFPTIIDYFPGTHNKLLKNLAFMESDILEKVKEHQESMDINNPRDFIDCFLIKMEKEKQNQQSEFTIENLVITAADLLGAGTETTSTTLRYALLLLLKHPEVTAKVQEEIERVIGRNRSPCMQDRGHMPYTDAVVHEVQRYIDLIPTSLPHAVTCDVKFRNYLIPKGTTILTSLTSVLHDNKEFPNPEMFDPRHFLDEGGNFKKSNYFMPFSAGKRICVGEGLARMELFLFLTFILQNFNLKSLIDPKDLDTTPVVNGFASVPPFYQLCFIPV

SMILES	EC50 [3]	EC50 [4]	AC50 (Cytochrome P450 2D6)	also measured
COc1ccc2cc(C(=O)N3CCN(Cc4ccc5c(c4)OCO5)CC3)[nH]c2c1	> 112 µM (not active)	> 112 µM (not active)		IC50 [1]: > 47.1 µM (inactive); EC50 [2]: > 53 µM (inactive)
N#Cc1cccc(-c2nc(NCc3cccs3)c3ccccc3n2)c1			5.01 µM (inconclusive)	
Cc1ccc(NC(=O)CNCC(c2ccccc2)N(C)C)cc1F (stereo not drawn)				EC50 [5]: 0.596 µM (active); IC50 [6]: 70.8 µM (active)
CSC1=NSC2=NC(=O)/C(=C/c3coc4ccccc4c3=O)C(=N)N12				AC50 [7]: 16.5 µM (active)
COc1ccccc1NS(=O)(=O)c1ccc(NC(C)=O)cc1	> 112 µM (not active)	> 112 µM (not active)		
C[C@@H]1CC[C@@H]2C(=O)N3[C@@H](CC[C@@H](C)[C@@H]3c3ccc(-c4ccco4)cc3)C(=O)N2[C@H]1c1ccc(-c2ccco2)cc1			6.31 µM (inconclusive)	
CCOc1cc(/C=N/NC(=O)c2cccc([N+](=O)[O-])c2)ccc1OS(=O)(=O)c1ccccc1			1 µM (inconclusive)	AC50 (Cytochrome P450 3A4): 8.91 µM (inconclusive); AC50 (Cytochrome P450 2C9): 11.2 µM (inconclusive); AC50 (Cytochrome P450 1A2): 7.08 µM (inconclusive)
Cc1ccc(NC(=O)Cc2nc(CCl)cs2)cc1	> 112 µM (not active)	> 112 µM (not active)		
O=C(Nc1ccccc1C(=O)N/N=C/c1ccncc1)c1ccccc1	3.06 µM (active)	< 0.088 µM (active)		
COc1ccccc1CCn1c(=O)c(-c2cccc(Cl)c2)nc2cncnc21			31.6 µM (inconclusive)	
C=CCN=C(NC#N)SCc1ccccc1			22.4 µM (inconclusive)	AC50 (Cytochrome P450 2C9): 15.8 µM (inconclusive)
COCc1cc(C)nc(SCC[N+](C)(C)CC(=O)c2ccc(Br)cc2)c1C#N	> 112 µM (not active)	> 112 µM (not active)		
COc1ccc(/C=N/NC(=O)c2nonc2C)cc1	2.84 µM (active)	9.4 µM (active)		
CC(C)N1C[C@@]23C=C[C@@H](O2)C(C(=O)OCc2ccccc2)[C@H]3C1=O (stereo partly drawn)	> 112 µM (not active)	> 112 µM (not active)		
COCCn1c(=O)c(-c2ccccc2)nc2cnc(N(C)C)nc21			12.6 µM (inconclusive)	AC50 (Cytochrome P450 3A4): 39.8 µM (inconclusive); AC50 (Cytochrome P450 2C19): 2 µM (inconclusive)
CCN(CC)CCC(=O)c1ccc(F)cc1				AC50 [7]: > 20 µM (inactive)
CCN(CC)CCCN(Cc1cc2cc(OC)ccc2nc1O)C(=O)Nc1ccc(F)cc1				AC50 [7]: 12.4 µM (active)

Source: ChEMBL document CHEMBL1201862, “PubChem BioAssay data set” (2004)
